This experiment has as its system anti-lamotrigine antibody. Nature of the experiment: Cross-reactivity of polyclonal antibody with lamotrigine metabolites. The class given is binding. Particulars: 500 μg/mL spiked into human serum. The protocol:
A polyclonal antisera is obtained and an assay is performed in order to determine the amount of cross-reactivity of the polyclonal antibody with lamotrigine and lamotrigine metabolites. A known amount of lamotrigine is used to react with an anti-lamotrigine antibody prepared in accordance with the present invention. The known concentration of lamotrigine is used to calculate the amount of cross-reactivity between the antibody preparation and the metabolites as follows: N-methyl (29); N-oxide (30); and N-2 gluronide (31). The percent of cross-reactivity equals 100 times the observed concentration of lamotrigine in μg/mL, which is then divided by the concentration of added metabolites in μg/mL. No cross-reactivity is observed in specimens containing those metabolites. High concentrations of these compounds are spiked into human serum and tested as samples. The metabolites are assayed and compared to control serum (no lamotrigine). Cross reactivity is calculated using the following equation: […]
Also, the cross-reactivity of N-2 oxide at 500 μg/mL is less then 3%.

Where only a bound is given, the exact number is not on record here.

For the compound `C[n+]1nc(-c2cccc(Cl)c2Cl)c(N)nc1N` [N-2 methyl], the cross-reactivity entry was “do not have any cross-reactivity”.

With `Nc1nc(N)[n+]([O-])nc1-c1cccc(Cl)c1Cl` [N-2 oxide], the cross-reactivity is reported as below 3%.

(Values after patent US8592564B2, “Immunoassays for lamotrigine” (Seradyn, Inc., priority 2004, dated 2013).)
